# What was measured:
# activated human PBMCs = test: PBMC cytokine release assay (IL-2, IFN-γ, TNF-α); assay type: cell-based; conditions: NECA at 10 µM
# Method: PBMCs (2 × 10^5 cells/well) were seeded in 96 well plate pre-coated with 10 ng/ml anti-CD3 antibody and stimulated with 20 ng/ml anti-CD28 antibodies to test IFN-γ and IL-2 secretion) or stimulated with 100 ng/ml LPS for TNF-α detection. […] Cell supernatants were collected at 24 h (IL-2 and TNF-α) and 72 h (IFN-γ) post-stimulation. IL-2 (R&D, S2050), IFN-γ (R&D, SIF50) and TNF-α (eBioscience, 88-7346-88) ELISA kits were used for measurement.
# [1] = test system: CREB phosphorylation in CD3+ T cells; test: CREB phosphorylation assay in whole blood; assay type: cell-based; conditions: human whole blood, up to 100 µM
# Method: Whole blood samples from three different healthy donors were collected and seeded in 96-well deep plates at a concentration of 90 µL/well. […] After washed twice with DPBS (Hyclone, SH30028.02), the cells were centrifuged at 600 × g for 8 min. […] Cells were then washed twice and acquired on a flow cytometric (BD FACSCanto™ II) with DIVA software (BD Biosciences). The reported pCREB signal is the mean fluorescent intensity (MFI).
# [2] = test system: monocyte-derived dendritic cells; test: DC maturation assay (CD83); assay type: cell-based, human; conditions: LPS-stimulated iDCs, 10 µM NECA
# Method: Monocytes were isolated from human PBMCs using untouched human monocytes kit (Invitrogen, #11350D) according to the manufacturer instruction. Isolated monocytes were cultured with 100 ng/ml GM-CSF (R&D, 215-GM) and 50 ng/ml IL-4 (R&D, 204-IL) supplemented every 2 days. On day 5, 100 ng/ml LPS (Sigma, L4391) was added for 48 h to stimulate DC maturation. […] CD83 was measured as DC maturation marker by flow cytometry, and the gating strategy is shown in supplemental Fig. S2. Data were analyzed with FlowJo software.
# [3] = test system: CREB phosphorylation in T cells; test: pCREB signaling inhibition assay, ex vivo human whole blood T cells; assay type: cell-based; conditions: for IC50: Homo sapiens, T-cell, read-out: IC50, block of CREB phosphorylation in CD4+ T cells; for pCREB at the highest concentration tested: 10 µM antagonist
# Method: Whole blood samples from three different healthy donors were collected and seeded in 96-well deep plates at a concentration of 90 µL/well. […] Cells were then lysed and fixed with BD Lyse/Fix Buffer (BD Bioscience, 558,049) for 15 min at 37 °C. After washed twice with DPBS (Hyclone, SH30028.02), the cells were centrifuged at 600 × g for 8 min. Cells were permeabilized by slow addition of BD Phosflow™ Perm Buffer III (BD Bioscience, 55,805) and incubated on ice for 60 min, and then resuspended in DPBS and stained with anti-CD3, anti-CD4, anti-CD8, and anti-pCREB (Ser133) antibodies for 1 h at room temperature in the dark. Cells were then washed twice and acquired on a flow cytometric (BD FACSCanto™ II) with DIVA software (BD Biosciences). The reported pCREB signal is the mean fluorescent intensity (MFI).
# For ex vivo pCREB assessment, whole blood samples were collected from healthy donors, plated at 90 µL/well in 96-well deep plates, and pre-incubated with DZD2269 at 37 °C for 30 min.
# A2aR = biological target: T1, A2aR (Homo sapiens, UniProt P29274); test: cAMP accumulation assay (HTRF) in CHO-A2aR cells; assay type: cell-based
# T1 construct: host or cells: CHO
# T1 sequence (P29274 whole entry): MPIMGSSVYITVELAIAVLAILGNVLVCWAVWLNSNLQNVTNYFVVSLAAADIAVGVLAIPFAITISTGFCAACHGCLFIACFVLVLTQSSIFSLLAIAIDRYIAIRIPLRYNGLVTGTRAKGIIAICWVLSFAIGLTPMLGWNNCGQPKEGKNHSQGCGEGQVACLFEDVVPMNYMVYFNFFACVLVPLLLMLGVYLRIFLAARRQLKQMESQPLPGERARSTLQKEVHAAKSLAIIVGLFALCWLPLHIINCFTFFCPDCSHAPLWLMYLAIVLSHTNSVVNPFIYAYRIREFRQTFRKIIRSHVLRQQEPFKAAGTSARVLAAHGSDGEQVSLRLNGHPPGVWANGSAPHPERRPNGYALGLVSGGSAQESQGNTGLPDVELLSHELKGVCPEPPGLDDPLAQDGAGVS
# Method: CHO cells stably expressing human adenosine receptors (CHO-A2aR, CHO-A2bR, CHO-A1R and CHO-A3R) were purchased from GenScript. […] All CHO cells were cultured in Ham’s F12K medium (Gibco) with 10% FBS (Gibco) and RM-1 in DMEM (Gibco) medium with 10% FBS. […] All other cells were cultured without antibiotics. All cells were maintained and propagated in a humidified incubator at 37 °C, 5% CO2.
# Assays were performed with HTRF cAMP kit (Cisbio, 62AM4PEJ). […] CHO-A2aR and CHO-A2bR cells were seeded in the plates at a density of 5,000 cells/well in F-12 medium containing 10% FBS. […] The dose-response curves were fitted by nonlinear regression using GraphPad Prism.
# Pan02 tumors = test: Pan02 pancreatic subcutaneous syngeneic model; assay type: in vivo, C57BL/6 mice; conditions: oxaliplatin 10 mg/kg alone or DZD2269 3 mg/kg alone
# Method: B16F10, RM-1 and Pan02 cells were harvested and suspended in DPBS. Single-cell suspensions of greater than 90% viability were used for injection. Tumor cells were injected subcutaneously in the left flank of the C57BL/6 mice with a total cell number of 2 × 10^6 (B16F10 and RM-1) and 1 × 10^7 cells (Pan02) in a volume of 0.1 ml. Tumor-bearing mice were randomized into treatment groups when the mean tumor volume reached 40 to 100 mm^3. Mice were then treated with vehicle or compounds starting the day after randomization, and tumor volume and body weight were measured twice a week. Tumor growth inhibition from the onset of treatment was assessed by comparing the mean change in tumor volume between control and treatment groups and expressed as tumor growth inhibition. Tumor nodules were measured two-dimensionally with calipers, and tumor volumes were calculated using the following formula: tumor volume (TV) = (length × width^2) × 0.52.
# Tumor tissues were collected at the end of the study. […] Positive cell percentage of stained IHC slides was quantified with a HALO image analysis platform (Indica Labs).
# Fig. 4 DZD2269 enhances the efficacy of radiotherapy (RT) in syngeneic mouse in vivo models. […] (A) IFN-γ in supernatant was measured 72 h after co-culture. (B) IL-2 in supernatant was measured 24 h after co-culture. […] Infiltrated CD8 + and CD4 + T cells were determined by IHC. […]
# [4] = design: method as in PMID 24835328, PMID 32685154; conditions: cited from earlier work
structure (smiles),measurement,setting,value
"CCNC(=O)[C@H]1O[C@@H](n2cnc3c(N)ncnc32)[C@H](O)[C@@H]1O [NECA, 5′-N-ethylcarboxamide adenosine]","IL-2, IFN-γ and TNF-α production",activated human PBMCs,completely blocked
same,CREB phosphorylation in CD3+ T cells,[1],stimulated CREB phosphorylation in a concentration dependent manner
Cc1c(C#N)cccc1-c1cc(-c2cn(Cc3cccc(C(C)(C)O)n3)nn2)nc(N)n1 [AB928],Relief of NECA inhibition of DC maturation (CD83),[2],did not relieve the inhibitory effect
same,IC50,[3],130 nM
same,Concentration that brings pCREB to the control level,"[3]; human whole blood, 10 µM NECA","over 1,000 nM"
same,IC50,A2aR; stimulated with 0.1 µM NECA,4.1 ± 1.2 nM
same,IC50,A2aR; stimulated with 1 µM adenosine,3.4 ± 0.92 nM
same,IC50,A2aR; stimulated with 10 µM NECA,408 ± 25 nM
same,IC50,A2aR; stimulated with 100 µM adenosine,463 ± 90 nM
"O=C1[O][Pt]2([NH][C@@H]3CCCC[C@H]3[NH]2)[O]C1=O [oxaliplatin, Oxaliplatin]","Anti-tumor effect, single agent",Pan02 tumors,showed some anti-tumor effect
Cc1ccc(-c2nc(N)nc3c2nnn3Cc2cccc(CO[C@H]3CCOC3)n2)o1 [CPI-444],pCREB at the highest concentration tested,"[3]; human whole blood, 10 µM NECA",failed to bring pCREB to the baseline (control) level
same,IC50,[3],> 1000 nM
Nc1ncnc2c1ncn2[C@@H]1O[C@H](CO)[C@@H](O)[C@H]1O [adenosine],Biological half-life in human blood,[4],less than 10 s
Cc1cc(-c2nnc(N)nc2-c2ccc(F)cc2)cc(Cl)n1 [AZD4635],pCREB at the highest concentration tested,"[3]; human whole blood, 10 µM NECA",failed to bring pCREB to the baseline (control) level
same,IC50,[3],> 1000 nM

# Source: publication PMC9563815, “Overcoming high level adenosine-mediated immunosuppression by DZD2269, a potent and selective A2aR antagonist” (Journal of Experimental & Clinical Cancer Research : CR, 2022)
